The target of experiment [1] is T1, Mer (Homo sapiens, UniProt Q12866).
T1 construct: host or cells: 293A cells (Thermo Fisher #R70507)
T1 sequence (Q12866 21-999): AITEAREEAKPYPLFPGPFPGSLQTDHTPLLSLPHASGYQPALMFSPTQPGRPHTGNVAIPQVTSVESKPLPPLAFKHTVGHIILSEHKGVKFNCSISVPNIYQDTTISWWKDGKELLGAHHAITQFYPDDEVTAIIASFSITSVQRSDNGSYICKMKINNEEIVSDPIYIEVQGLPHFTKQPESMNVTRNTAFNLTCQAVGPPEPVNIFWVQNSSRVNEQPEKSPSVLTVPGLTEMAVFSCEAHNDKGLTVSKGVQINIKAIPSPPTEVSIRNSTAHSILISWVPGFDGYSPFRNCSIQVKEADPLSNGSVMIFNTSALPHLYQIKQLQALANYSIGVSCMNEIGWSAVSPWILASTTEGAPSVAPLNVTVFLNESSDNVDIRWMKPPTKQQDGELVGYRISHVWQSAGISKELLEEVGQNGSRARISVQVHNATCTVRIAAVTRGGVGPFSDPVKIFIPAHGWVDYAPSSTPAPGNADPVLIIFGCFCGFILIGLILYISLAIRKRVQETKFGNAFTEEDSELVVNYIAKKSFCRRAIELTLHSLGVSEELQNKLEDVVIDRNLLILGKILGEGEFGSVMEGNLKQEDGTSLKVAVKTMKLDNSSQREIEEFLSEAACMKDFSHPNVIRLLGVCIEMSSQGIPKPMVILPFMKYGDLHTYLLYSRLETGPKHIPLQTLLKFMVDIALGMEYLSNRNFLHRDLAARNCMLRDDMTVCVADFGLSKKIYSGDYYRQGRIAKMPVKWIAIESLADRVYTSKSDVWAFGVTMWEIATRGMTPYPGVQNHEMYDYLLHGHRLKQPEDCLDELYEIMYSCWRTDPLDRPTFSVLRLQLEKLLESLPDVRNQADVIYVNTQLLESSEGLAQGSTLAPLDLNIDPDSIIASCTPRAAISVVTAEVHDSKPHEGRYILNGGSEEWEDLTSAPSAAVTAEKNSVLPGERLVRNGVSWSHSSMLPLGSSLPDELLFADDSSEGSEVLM
The experiment can be described thus: Mer autophosphorylation ELISA in transient transfected 293A cells. Type of experiment: cell-based. As to conditions: Table 3 Cellular Activities; MERTK-transfected 293A cells, phospho-Mer ELISA. The method in brief:
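293A cells transiently transfected with human MERTK DNA, replated after 24 h, then treated 1 h with 8-point compound dilutions in serum-free medium (0.3% DMSO). Lysates assayed by phospho-Mer sandwich ELISA against phospho-Mer standard; DMSO = 100%, reference inhibitor = 0% activity; IC50 by 4-parameter logistic fit.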

The target in experiment [2] is KDR (Homo sapiens, UniProt P35968). Kind of experiment: KDR autophosphorylation ELISA in HUVEC cells. It is filed as cell-based. As to conditions: Table 3 Cellular Activities, VEGF165-stimulated, phospho-KDR ELISA. Details: endogenous in cells; host or cells: HUVEC (Lonza #C2519A). In a few lines:
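Inhibition of VEGF165-induced KDR phosphorylation was determined in serum-starved HUVEC after 1 h compound pretreatment and 5 min stimulation with 100 ng/mL VEGF165. Lysate phospho-KDR was measured by ELISA; IC50 values came from a 4-parameter logistic fit of 8-point curves.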

Results on 19 compounds are retold here after patent US20230151003A1, “COMPOUNDS AND METHODS OF USE” (Exelixis, Inc., priority 2020, published 2023).

pIC50: −log10 of the molar value. Where only a bound is given, the exact number is not on record here.

KDR, sequence (P35968 20-1356): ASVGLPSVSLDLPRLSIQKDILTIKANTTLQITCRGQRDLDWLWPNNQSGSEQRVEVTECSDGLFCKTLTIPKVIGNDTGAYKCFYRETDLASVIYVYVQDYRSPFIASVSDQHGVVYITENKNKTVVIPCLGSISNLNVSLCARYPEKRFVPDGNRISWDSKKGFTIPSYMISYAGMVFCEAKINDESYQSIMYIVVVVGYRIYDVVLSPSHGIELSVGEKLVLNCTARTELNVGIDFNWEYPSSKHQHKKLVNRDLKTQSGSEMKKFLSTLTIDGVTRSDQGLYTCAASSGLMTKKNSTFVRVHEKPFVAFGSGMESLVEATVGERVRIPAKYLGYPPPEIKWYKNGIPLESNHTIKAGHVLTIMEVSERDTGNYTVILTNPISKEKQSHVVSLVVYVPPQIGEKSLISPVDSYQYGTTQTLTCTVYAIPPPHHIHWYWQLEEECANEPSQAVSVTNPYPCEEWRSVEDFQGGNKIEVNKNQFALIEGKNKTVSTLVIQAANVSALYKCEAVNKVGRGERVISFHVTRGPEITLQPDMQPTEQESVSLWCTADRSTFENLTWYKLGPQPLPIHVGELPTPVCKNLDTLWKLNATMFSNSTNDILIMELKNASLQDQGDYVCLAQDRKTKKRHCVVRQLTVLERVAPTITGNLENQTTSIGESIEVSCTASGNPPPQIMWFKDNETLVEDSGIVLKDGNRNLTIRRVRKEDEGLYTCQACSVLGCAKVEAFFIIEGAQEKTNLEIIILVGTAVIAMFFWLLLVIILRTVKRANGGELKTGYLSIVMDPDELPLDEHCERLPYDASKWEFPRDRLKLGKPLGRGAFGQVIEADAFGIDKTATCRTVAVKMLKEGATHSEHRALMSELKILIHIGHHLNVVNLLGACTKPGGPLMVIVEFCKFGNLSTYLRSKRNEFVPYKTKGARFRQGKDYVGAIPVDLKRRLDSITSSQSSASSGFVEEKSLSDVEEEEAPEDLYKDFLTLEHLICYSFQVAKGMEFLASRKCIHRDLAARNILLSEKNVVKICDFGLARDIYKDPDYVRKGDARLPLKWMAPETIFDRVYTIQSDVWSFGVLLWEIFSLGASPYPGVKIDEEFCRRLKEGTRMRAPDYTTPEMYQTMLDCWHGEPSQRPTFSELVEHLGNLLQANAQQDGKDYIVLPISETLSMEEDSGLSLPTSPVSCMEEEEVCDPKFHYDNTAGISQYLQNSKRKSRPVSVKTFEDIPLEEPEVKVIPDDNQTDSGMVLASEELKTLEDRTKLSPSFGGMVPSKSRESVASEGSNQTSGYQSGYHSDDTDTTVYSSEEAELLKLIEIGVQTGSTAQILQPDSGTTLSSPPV

With `COc1cc2nccc(Oc3ccc(NC(=O)c4c(C)ccn(-c5ccc(F)cn5)c4=O)cc3F)c2nc1OC` [Compound 41, N-[4-[(6,7-Dimethoxy-1,5-naphthyridin-4-yl)oxy]-3-fluorophenyl]-1-(5-fluoropyridin-2-yl)-4-methyl-2-oxopyridine-3-carboxamide], the pIC50 in experiment [1] and in experiment [2] was not below 7.00 each time.
In the case of `COc1cc2nccc(Oc3ccc(NC(=O)c4cccn(-c5ccc(F)cn5)c4=O)cc3F)c2nc1OC` [Compound 42, N-[4-[(6,7-Dimethoxy-1,5-naphthyridin-4-yl)oxy]-3-fluorophenyl]-1-(5-fluoropyridin-2-yl)-2-oxopyridine-3-carboxamide], the pIC50 in experiment [1] and in experiment [2] was not below 7.00 each time.
As for `COc1cc2nccc(Oc3ccc(NC(=O)c4ccc(C)n(-c5ccc(F)cn5)c4=O)cc3F)c2nc1OC` [Compound 43, N-[4-[(6,7-Dimethoxy-1,5-naphthyridin-4-yl)oxy]-3-fluorophenyl]-1-(5-fluoropyridin-2-yl)-6-methyl-2-oxopyridine-3-carboxamide], the pIC50 in experiment [1] and in experiment [2] was not below 7.00 throughout.
`COc1cc2nccc(Oc3ccc(NC(=O)c4ccc(C)n(-c5ccc(F)cn5)c4=O)cc3)c2nc1OC` [Compound 44, N-[4-[(6,7-Dimethoxy-1,5-naphthyridin-4-yl)oxy]phenyl]-1-(5-fluoropyridin-2-yl)-6-methyl-2-oxopyridine-3-carboxamide]: the pIC50 in experiment [1] and in experiment [2] was not below 7.00 each time.
Take `COc1cnc2c(Oc3ccc(NC(=O)c4ccc(C)n(-c5ccc(F)cn5)c4=O)cc3F)ccnc2c1` [Compound 45, N-[3-Fluoro-4-[(7-methoxy-1,5-naphthyridin-4-yl)oxy]phenyl]-1-(5-fluoropyridin-2-yl)-6-methyl-2-oxopyridine-3-carboxamide]: the pIC50 in experiment [1] and in experiment [2] was not below 7.00 in each case.
Take `COc1ccc2nccc(Oc3ccc(NC(=O)c4ccc(C)n(-c5ccc(F)cn5)c4=O)cc3F)c2n1` [Compound 47, N-[3-Fluoro-4-[(6-methoxy-1,5-naphthyridin-4-yl)oxy]phenyl]-1-(5-fluoropyridin-2-yl)-6-methyl-2-oxopyridine-3-carboxamide]: the pIC50 in experiment [1] and in experiment [2] was not below 7.00 each time.
For `Cc1ccc(C(=O)Nc2ccc(Oc3ccnc4cccnc34)c(F)c2)c(=O)n1-c1ccc(F)cn1` [Compound 48, N-[3-Fluoro-4-(1,5-naphthyridin-4-yloxy)phenyl]-1-(5-fluoropyridin-2-yl)-6-methyl-2-oxopyridine-3-carboxamide], the negative logarithm of the IC50 (pIC50) is not below 7.00 in experiment [1] and 6.00 to 6.52 in experiment [2].
In the case of `COc1ccc2nccc(Oc3ccc(NC(=O)c4ccc(C)n(-c5ccc(F)cn5)c4=O)cc3F)c2c1` [Compound 49, N-[3-Fluoro-4-(6-methoxyquinolin-4-yl)oxyphenyl]-1-(5-fluoropyridin-2-yl)-6-methyl-2-oxopyridine-3-carboxamide], the pIC50 in experiment [1] and in experiment [2] was not below 7.00 each time.
As for `COCCOc1cc2nccc(Oc3ccc(NC(=O)c4ccc(C)n(-c5ccc(F)cn5)c4=O)cc3F)c2nc1OC` [Compound 50, N-[3-Fluoro-4-[[6-methoxy-7-(2-methoxyethoxy)-1,5-naphthyridin-4-yl]oxy]phenyl]-1-(5-fluoropyridin-2-yl)-6-methyl-2-oxopyridine-3-carboxamide], the pIC50 in experiment [1] and in experiment [2] was not below 7.00 each time.
Turning to `COc1cc2nccc(Oc3ccc(NC(=O)c4ccc(C)n(-c5ncc(F)cc5C)c4=O)cc3F)c2nc1OC` [Compound 51, N-[4-[(6,7-Dimethoxy-1,5-naphthyridin-4-yl)oxy]-3-fluorophenyl]-1-(5-fluoro-3-methylpyridin-2-yl)-6-methyl-2-oxopyridine-3-carboxamide], the pIC50 in experiment [1] and in experiment [2] was not below 7.00 throughout.
For the compound `COc1cnc2c(Oc3ccc(NC(=O)c4ccc(C)n(-c5ncc(F)cc5C)c4=O)cc3F)ccnc2c1` [Compound 52, N-[3-Fluoro-4-[(7-methoxy-1,5-naphthyridin-4-yl)oxy]phenyl]-1-(5-fluoro-3-methylpyridin-2-yl)-6-methyl-2-oxopyridine-3-carboxamide], the pIC50 in experiment [1] and in experiment [2] was not below 7.00 in each case.
For the compound `COc1ccc2nccc(Oc3ccc(NC(=O)c4ccc(C)n(-c5ncc(F)cc5C)c4=O)cc3F)c2n1` [Compound 53, N-[3-Fluoro-4-[(6-methoxy-1,5-naphthyridin-4-yl)oxy]phenyl]-1-(5-fluoro-3-methylpyridin-2-yl)-6-methyl-2-oxopyridine-3-carboxamide], the pIC50 in experiment [1] and in experiment [2] was not below 7.00 each time.
Consider `Cc1ccc(C(=O)Nc2ccc(Oc3ccnc4cnc(Cl)cc34)c(F)c2)c(=O)n1-c1ccc(F)cn1` [Compound 54A, N-[4-[(6-Chloro-1,7-naphthyridin-4-yl)oxy]-3-fluorophenyl]-1-(5-fluoropyridin-2-yl)-6-methyl-2-oxopyridine-3-carboxamide], for which the pIC50 in experiment [1] is not below 7.00; in experiment [2], 6.52 to 7.00.
For `COc1cc2nccc(Oc3ccc(NC(=O)c4cc(C#N)c(C)n(-c5ccc(F)cn5)c4=O)cc3F)c2nc1OC` [Compound 56, 5-Cyano-N-[4-[(6,7-dimethoxy-1,5-naphthyridin-4-yl)oxy]-3-fluorophenyl]-1-(5-fluoropyridin-2-yl)-6-methyl-2-oxopyridine-3-carboxamide] the same measures were not below 7.00 and 6.00 to 6.52.
For `COc1cc2nccc(Oc3ccc(NC(=O)c4cc(C(C)=O)c(C)n(-c5ccc(F)cn5)c4=O)cc3F)c2nc1OC` [Compound 59, 5-Acetyl-N-[4-[(6,7-dimethoxy-1,5-naphthyridin-4-yl)oxy]-3-fluorophenyl]-1-(5-fluoropyridin-2-yl)-6-methyl-2-oxopyridine-3-carboxamide], the pIC50 is not below 7.00 in experiment [1] and 6.52 to 7.00 in experiment [2].
For the compound `COc1cc2nccc(Oc3ccc(NC(=O)c4c(C)ncc(-c5ccc(F)cn5)c4O)cc3F)c2nc1OC` [Compound 68, N-[4-[(6,7-Dimethoxy-1,5-naphthyridin-4-yl)oxy]-3-fluorophenyl]-5-(5-fluoropyridin-2-yl)-4-hydroxy-2-methylpyridine-3-carboxamide], the pIC50 in experiment [1] and in experiment [2] was not below 7.00 in each case.
Regarding `COc1cc2nccc(Oc3ccc(NC(=O)c4c(C)ncc(-c5ccccn5)c4O)cc3F)c2nc1OC` [Compound 69, N-[4-[(6,7-Dimethoxy-1,5-naphthyridin-4-yl)oxy]-3-fluorophenyl]-4-hydroxy-2-methyl-5-pyridin-2-ylpyridine-3-carboxamide], the pIC50 in experiment [1] and in experiment [2] was not below 7.00 in each case.
Regarding `COc1cnc2c(Oc3ccc(NC(=O)c4c(C)ncc(-c5ccccn5)c4O)cc3F)ccnc2c1` [Compound 70, N-[3-Fluoro-4-[(7-methoxy-1,5-naphthyridin-4-yl)oxy]phenyl]-4-hydroxy-2-methyl-5-pyridin-2-ylpyridine-3-carboxamide], the negative logarithm of the IC50 (pIC50) in experiment [1] and in experiment [2] was not below 7.00 each time.
Regarding `COc1cc2nccc(Oc3ccc(NC(=O)c4c(C)n(C)cc(-c5ccc(F)cn5)c4=O)cc3F)c2nc1OC` [Compound 71, N-[4-[(6,7-Dimethoxy-1,5-naphthyridin-4-yl)oxy]-3-fluorophenyl]-5-(5-fluoropyridin-2-yl)-1,2-dimethyl-4-oxopyridine-3-carboxamide], the pIC50 is not below 7.00 in experiment [1] and 6.00 to 6.52 in experiment [2].
